Measured values: US11667652B2, “MCL1 inhibitors” (Gilead Sciences, Inc., priority 2019, dated 2023)
Like-named read-outs stand apart in the source and are kept apart here.

How the values were obtained:
SKBR3 cells = experiment: SKBR3 Cell Viability Assay; format: cell-based; conditions: CellTiter Glo, read-out: MCL1 CV SKBR3 EC50
Protocol: SKBR3 Cell Viability Assay Materials
SKBR3 Cells (ATCC HTB-30) were obtained from ATCC (Manassas, Va.) and cultured in McCoy 5A's medium (ATCC 30-2007)+10% fetal bovine serum (SH30071.03, HyClone, Pittsburgh, Pa.) plus 1× Penicillin-Streptomycin L-glutamine (Corning 30-009-CI, Corning, N.Y.).
The cell viability assay was conducted in a 384-well tissue culture plate (Grenier 781086, Monroe, N.C.) in a total volume of 70 μL. Test compounds were prepared in 1,000×, serially diluted, and pre-spotted into 384-well tissue culture plate by Echo 555 Liquid Handler (Labcyte Inc., San Jose, Calif.). Seventy μL of 6,000 SKBR3 cells were dispensed into each well of the plate and incubated at 37° C. with 5% CO2 for 72 hours. At the end of incubation, 2× CellTiter Glo (CTG) reagents (1 part buffer with 2 parts substrate) (Promega, Madison, Wis.) were prepared, and the plate and the reagent were equilibrated to room temperature for 30 minutes. CTG reagent was added to each plate by Biomek FX at 20 μL/well with 5 times pipetting and mixing to induce cell lysis. Luminescence was read by Envision multimode reader (PerkinElmer). Percent inhibition was calculated as followed: % Inhibition=100%*(Well−Neg)/(Pos−Neg) Neg, negative control, DMSO Pos, positive control, 10 μM Puromycin

MCL1/Bim = MCL1/Bim (Homo sapiens (Human), UniProt Q07820); experiment: MCL1/Bim Binding AlphaLISA Assay; conditions: recombinant human 6xHis-MCL1 (171-327), biotinylated Bim peptide (51-76)
Sequence of MCL1/Bim (Q07820 171-327): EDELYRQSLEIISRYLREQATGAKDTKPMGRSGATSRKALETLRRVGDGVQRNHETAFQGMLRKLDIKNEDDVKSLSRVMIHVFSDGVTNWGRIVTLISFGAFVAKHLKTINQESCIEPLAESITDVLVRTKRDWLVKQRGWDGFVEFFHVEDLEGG
Protocol: MCL1/Bim Binding AlphaLISA Assay.
Inhibition of the MCL1 and Bim interaction was measured in the following AlphaLISA assay.
Recombinant human MCL1 protein (C-terminal 6×His Tagged MCL1 containing residues 171-327) was generated at Gilead Sciences, Inc. (Foster City, Calif.). A biotinylated peptide derived from human Bim (residues 51-76) was purchased from CPC Scientific (Sunnyvale, Calif.). (CPC 834113). AlphaLISA anti-6His- acceptor beads (AL128R), AlphaScreen Streptavidin donor beads (6760002B), and Proxiplate-384 Plus (6008289) were purchased from PerkinElmer.
The AlphaLISA assay was performed in a 384-well Proxiplate in a total volume of […]. The reaction mixture contained 0.0625 nM 6×His-MCL1 (171-327), 0.0625 nM biotinylated-Bim peptide, 10 μg/mL AlphaLISA anti-6×His-AlphaLISA acceptor beads, 40 μg/mL AlphaScreen streptavidin donor beads, and serially diluted test compounds in the binding buffer (20 mM Hepes, pH 7.5 (Teknova H1035); 150 mM NaCl (Promega V4221); 0.002% Brij 35 (Thermo Scientific 20150); 1 mM Dithiothreitol (DTT) Solution (Affymetrix 70726); 0.01% BSA (BioLabs B9000S)). 1,000× test compounds were pre-spotted onto 384-well Proxiplate (Labcyte Echo) by Echo 555 Liquid Handler (Labcyte Inc., San Jose, Calif.) followed by incubation of 5 μL MCL1(171-327) for 1 hour. Then 5 μL Bim (51-76) was added and incubated for 2 hours. Five μL AlphaLISA anti-6His-AlphaLISA acceptor beads were then added for 1 hour followed by addition of 5 μL AlphaScreen streptavidin donor beads for 1 hour. The reaction plates were then read on an Envision multimode reader (PerkinElmer) using AlphaScreen settings. Percent inhibition was calculated as shown below: % Inhibition=100%*(Well−Neg)/(Pos−Neg) Neg: negative control, DMSO Pos: positive control, no MCL1 protein, no biotinylated-Bim peptide

[1] = Homo sapiens, SK-BR-3, 72 hours

Compound | EC50 (SKBR3 cells; 72 hours) [nM] | IC50 (MCL1/Bim) [nM] | EC50 (SKBR3 cells; [1]) [nM]
COc1nn(C)cc1C(=O)N[S@@]1(=O)=NC(=O)c2ccc3c(c2)N(C[C@@H]2CC[C@H]2[C@@H](OC)/C=C/[C@H](OCCn2ccnc2)[C@H](C)C1)C[C@@]1(CCCc2cc(Cl)ccc21)CO3 [Example 88] | 170 | 0.055 | –
COc1nn(C)cc1C(=O)N[S@@]1(=O)=NC(=O)c2ccc3c(c2)N(C[C@@H]2CC[C@H]2[C@@H](OC)/C=C/[C@H](OCCN2CC4(COC4)C2)[C@H](C)C1)C[C@@]1(CCCc2cc(Cl)ccc21)CO3 [Example 86] | – | 0.088 | 64.6
COc1nn(C)cc1C(=O)N[S@@]1(=O)=NC(=O)c2ccc3c(n2)N(C[C@@H]2CC[C@H]2[C@@H](OC)/C=C/[C@H](OC)[C@H](C)C1)C[C@@]1(CCCc2cc(Cl)ccc21)CO3 [Example 198] | 22.3 | 0.05 | –
CO[C@H]1/C=C/C[C@H](C)C[S@@](=O)(Nc2ncnc3nn(C)cc23)=NC(=O)c2ccc3c(c2)N(C[C@@H]2CC[C@H]21)C[C@@]1(CCCc2cc(Cl)ccc21)CO3 [Example 8] | – | 0.061 | 26.5
CO[C@H]1/C=C/C[C@H](C)[C@@H](C)[S@@](=O)(NC(=O)c2cnn(C3COC3)c2)=NC(=O)c2ccc3c(n2)N(C[C@@H]2CC[C@H]21)C[C@@]1(CCCc2cc(Cl)ccc21)CO3 [Example 201] | – | 0.1 | 85
CO[C@H]1/C=C/CCC[S@@](=O)(NC(=O)NC2CC2)=NC(=O)c2ccc3c(c2)N(C[C@@H]2CC[C@H]21)C[C@]1(CO3)SCCc2cc(Cl)ccc21 [Example 183] | – | 0.24 | 454
COc1nn(C)cc1C(=O)N[S@@]1(=O)=NC(=O)c2ccc3c(c2)N(C[C@@H]2CC[C@H]2[C@](O)(CC(=O)N2CCN(C)CC2)/C=C/C[C@H](C)C1)C[C@@]1(CCCc2cc(Cl)ccc21)CO3 [Example 101] | 27 | 0.026 | –
COc1nn(C)cc1C(=O)N[S@@]1(=O)=NC(=O)c2ccc3c(c2)N(C[C@@H]2CC[C@H]2/C=C/[C@@H]2OCCO[C@@H]2[C@H](C)C1)C[C@@]1(CCCc2cc(Cl)ccc21)CO3 [Example 153] | 1000 | 0.189 | –
COc1nn(C)cc1C(=O)N[S@@]1(=O)=NC(=O)c2ccc3c(c2)N(C[C@@H]2CC[C@H]2[C@H]2OCC[C@@H]2C[C@H](OC)[C@H](C)C1)C[C@@]1(CCCc2cc(Cl)ccc21)CO3 (mixture of isomers) [Example 155] | – | 0.072 | 88.9
CO[C@H]1/C=C/C[C@H](C)C[S@@](=O)(NC(=O)c2cn(C)nc2N2CCN3CCOC[C@@H]3C2)=NC(=O)c2ccc3c(c2)N(C[C@@H]2CC[C@H]21)C[C@@]1(CCCc2cc(Cl)ccc21)CO3 [Example 23] | – | 0.083 | 17.3
COc1nn(C)cc1C(=O)N[S@@]1(=O)=NC(=O)c2ccc3c(c2)N(C[C@@H]2CC[C@H]2[C@@H](OC)/C=C/[C@H](OCCN2CC(OC)C2)[C@H](C)C1)C[C@@]1(CCCc2cc(Cl)ccc21)CO3 [Example 81] | – | 0.011 | 6.3
CO[C@H]1/C=C/C[C@H](C)[C@@H](C)[S@@](=O)(NC(=O)c2cc3n(c2)CCOC3)=NC(=O)c2ccc3c(c2)N(C[C@@H]2CC[C@H]21)C[C@]1(CO3)C[C@@H]2C[C@@H]2c2cc(Cl)ccc21 [Example 172] | – | 0.605 | 160
COc1nn(C)cc1C(=O)N[S@@]1(=O)=NC(=O)c2ccc3c(c2)N(C[C@@H]2CC[C@H]2[C@@H](OC)/C=C/C(O)(CC(=O)N(C)C)[C@H](C)C1)C[C@@]1(CCCc2cc(Cl)ccc21)CO3 (mixture of isomers) [Example 124] | – | 0.033 | 10.1
COc1nn(C)cc1C(=O)N[S@@]1(=O)=NC(=O)c2ccc3c(c2)N(C[C@@H]2CC[C@H]2[C@@](CN2CCN(C4COC4)CC2)(OC)/C=C/C[C@H](C)C1)C[C@@]1(CCCc2cc(Cl)ccc21)CO3 [Example 116] | – | 0.102 | 13.4
COc1nn(C)cc1C(=O)N[S@@]1(=O)=NC(=O)c2ccc3c(c2)N(C[C@@H]2CC[C@H]2[C@@H](OC)C#C[C@H](OC)[C@H](C)C1)C[C@@]1(CCCc2cc(Cl)ccc21)CO3 [Example 72] | 294 | 0.309 | –
